According to PubChem BioAssay (NCI):
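Compound exposure: 48 hours, 5 concentrations, 96-well plates. Here, GI50 denotes the concentration required for 50% inhibition of growth. TGI denotes the concentration required for complete inhibition of growth.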

Columns and labels:
Assay in all cases: DTP human tumour cell line panel, 48 h
MALME-3M melanoma = test system: MALME-3M melanoma
HT29 colon = test system: HT29 colon
DU-145 prostate = test system: DU-145 prostate
UACC-62 melanoma = test system: UACC-62 melanoma
SF-268 CNS = test system: SF-268 CNS
HCC-2998 colon = test system: HCC-2998 colon
UO-31 renal = test system: UO-31 renal
LOX IMVI melanoma = test system: LOX IMVI melanoma
SK-MEL-2 melanoma = test system: SK-MEL-2 melanoma
COLO 205 colon = test system: COLO 205 colon
HOP-62 NSCLC = test system: HOP-62 NSCLC
SN12C renal = test system: SN12C renal
TK-10 renal = test system: TK-10 renal
K-562 leukemia = test system: K-562 leukemia
786-0 renal = test system: 786-0 renal
RPMI-8226 leukemia = test system: RPMI-8226 leukemia
SF-295 CNS = test system: SF-295 CNS
HCT-15 colon = test system: HCT-15 colon
T-47D breast = test system: T-47D breast
HCT-116 colon = test system: HCT-116 colon
M14 melanoma = test system: M14 melanoma
OVCAR-5 ovarian = test system: OVCAR-5 ovarian
SF-539 CNS = test system: SF-539 CNS
ACHN renal = test system: ACHN renal
SW-620 colon = test system: SW-620 colon
A498 renal = test system: A498 renal
RXF 393 renal = test system: RXF 393 renal
MOLT-4 leukemia = test system: MOLT-4 leukemia
SK-MEL-28 melanoma = test system: SK-MEL-28 melanoma
HL-60(TB) leukemia = test system: HL-60(TB) leukemia
KM12 colon = test system: KM12 colon
MDA-MB-231 breast = test system: MDA-MB-231 breast
SNB-75 CNS = test system: SNB-75 CNS
SR leukemia = test system: SR leukemia
PC-3 prostate = test system: PC-3 prostate
NCI-H460 lung = test system: NCI-H460 lung
SNB-19 CNS = test system: SNB-19 CNS
SK-MEL-5 melanoma = test system: SK-MEL-5 melanoma
U251 CNS = test system: U251 CNS
CCRF-CEM leukemia = test system: CCRF-CEM leukemia
OVCAR-3 ovarian = test system: OVCAR-3 ovarian
NCI/ADR-RES ovarian = test system: NCI/ADR-RES ovarian
SK-OV-3 ovarian = test system: SK-OV-3 ovarian
MDA-MB-435 = test system: MDA-MB-435
HS 578T breast = test system: HS 578T breast
IGROV1 ovarian = test system: IGROV1 ovarian
UACC-257 melanoma = test system: UACC-257 melanoma
NCI-H522 lung = test system: NCI-H522 lung
A549 NSCLC = test system: A549 NSCLC
BT-549 breast = test system: BT-549 breast
NCI-H23 lung = test system: NCI-H23 lung
NCI-H226 lung = test system: NCI-H226 lung
OVCAR-4 ovarian = test system: OVCAR-4 ovarian
EKVX NSCLC = test system: EKVX NSCLC
CAKI-1 renal = test system: CAKI-1 renal
HOP-92 NSCLC = test system: HOP-92 NSCLC
MCF7 breast = test system: MCF7 breast
OVCAR-8 ovarian = test system: OVCAR-8 ovarian

COc1cc(NS(C)(=O)=O)ccc1Nc1c2ccc(Cl)cc2nc2c(OC)cccc12 was tested, and the GI50 (MALME-3M melanoma) was 211 nM, the TGI (MALME-3M melanoma) was 4690 nM and the GI50 (HT29 colon) was 142 nM. The TGI (HT29 colon) was 1850 nM, the GI50 (DU-145 prostate) was under 14.3 nM and the TGI (DU-145 prostate) was 505 nM. The GI50 (UACC-62 melanoma) was 189 nM, the TGI (UACC-62 melanoma) was 2960 nM and the GI50 (SF-268 CNS) was 131 nM. It also gave a TGI (SF-268 CNS) of 11500 nM, a GI50 (HCC-2998 colon) of 826 nM and a TGI (HCC-2998 colon) of 5230 nM. It also gave a GI50 (UO-31 renal) of 46.6 nM, a TGI (UO-31 renal) of 698 nM and a GI50 (LOX IMVI melanoma) of 109 nM. It also gave a GI50 (SK-MEL-2 melanoma) of 1470 nM, a TGI (SK-MEL-2 melanoma) of 7350 nM and a GI50 (COLO 205 colon) of 182 nM. It also gave a TGI (COLO 205 colon) of 2350 nM, a GI50 (HOP-62 NSCLC) of 56.1 nM and a TGI (HOP-62 NSCLC) of 1440 nM. For the same molecule, the GI50 (SN12C renal) was 62.8 nM, the TGI (SN12C renal) was 3530 nM and the GI50 (TK-10 renal) was 137 nM. It also gave a TGI (TK-10 renal) of 1830 nM, a GI50 (K-562 leukemia) of 425 nM and a TGI (K-562 leukemia) of over 100000 nM. For the same molecule, the GI50 (786-0 renal) was 52.6 nM, the TGI (786-0 renal) was 689 nM and the GI50 (RPMI-8226 leukemia) was 595 nM. It also gave a GI50 (SF-295 CNS) of 35.6 nM, a TGI (SF-295 CNS) of 1110 nM and a GI50 (HCT-15 colon) of 226 nM. It also gave a GI50 (T-47D breast) of 82.6 nM, a TGI (T-47D breast) of 3370 nM and a GI50 (HCT-116 colon) of 79.4 nM. For the same molecule, the TGI (HCT-116 colon) was 2050 nM, the GI50 (M14 melanoma) was 146 nM and the TGI (M14 melanoma) was 1830 nM. It also gave a GI50 (OVCAR-5 ovarian) of 1590 nM, a TGI (OVCAR-5 ovarian) of 23300 nM and a GI50 (SF-539 CNS) of 59 nM. It also gave a TGI (SF-539 CNS) of 681 nM, a GI50 (ACHN renal) of 31.4 nM and a TGI (ACHN renal) of 1500 nM. It also gave a GI50 (SW-620 colon) of 79.9 nM, a TGI (SW-620 colon) of 2170 nM and a GI50 (A498 renal) of 156 nM. For the same molecule, the TGI (A498 renal) was 2240 nM, the GI50 (RXF 393 renal) was 411 nM and the TGI (RXF 393 renal) was 3040 nM. It also gave a TGI (MOLT-4 leukemia) of 2150 nM, a GI50 (SK-MEL-28 melanoma) of 1960 nM and a TGI (SK-MEL-28 melanoma) of 18000 nM. The GI50 (HL-60(TB) leukemia) was 31.3 nM, the TGI (HL-60(TB) leukemia) was 1300 nM and the GI50 (KM12 colon) was 268 nM. The TGI (KM12 colon) was 1810 nM, the GI50 (MDA-MB-231 breast) was 3000 nM and the TGI (MDA-MB-231 breast) was 15600 nM. The GI50 (SNB-75 CNS) was 96.6 nM, the TGI (SNB-75 CNS) was 1590 nM and the GI50 (SR leukemia) was under 10.9 nM. The TGI (SR leukemia) was 10200 nM, the GI50 (PC-3 prostate) was 782 nM and the TGI (PC-3 prostate) was 15200 nM. It also gave a TGI (NCI-H460 lung) of 1370 nM, a GI50 (SNB-19 CNS) of 135 nM and a TGI (SNB-19 CNS) of 22300 nM. For the same molecule, the GI50 (SK-MEL-5 melanoma) was 129 nM, the TGI (SK-MEL-5 melanoma) was 3970 nM and the GI50 (U251 CNS) was 98.2 nM. The TGI (U251 CNS) was 1320 nM, the GI50 (CCRF-CEM leukemia) was 30.9 nM and the TGI (CCRF-CEM leukemia) was over 91700 nM. The GI50 (OVCAR-3 ovarian) was 719 nM, the TGI (OVCAR-3 ovarian) was 2510 nM and the GI50 (NCI/ADR-RES ovarian) was 1350 nM. The TGI (NCI/ADR-RES ovarian) was over 49400 nM, the GI50 (SK-OV-3 ovarian) was 117 nM and the TGI (SK-OV-3 ovarian) was 2000 nM. The GI50 (MDA-MB-435) was 913 nM, the TGI (MDA-MB-435) was 16000 nM and the GI50 (HS 578T breast) was 4470 nM. The TGI (HS 578T breast) was 73700 nM, the GI50 (IGROV1 ovarian) was 331 nM and the TGI (IGROV1 ovarian) was 6890 nM. For the same molecule, the GI50 (UACC-257 melanoma) was 698 nM, the TGI (UACC-257 melanoma) was 4070 nM and the GI50 (NCI-H522 lung) was 222 nM. It also gave a TGI (NCI-H522 lung) of 2120 nM, a GI50 (A549 NSCLC) of 13.5 nM and a TGI (A549 NSCLC) of 1350 nM. The GI50 (BT-549 breast) was 441 nM, the TGI (BT-549 breast) was 2240 nM and the GI50 (NCI-H23 lung) was 125 nM. For the same molecule, the TGI (NCI-H23 lung) was 5360 nM, the GI50 (NCI-H226 lung) was 80.6 nM and the TGI (NCI-H226 lung) was 830 nM. It also gave a GI50 (OVCAR-4 ovarian) of 2320 nM, a TGI (OVCAR-4 ovarian) of 16700 nM and a GI50 (EKVX NSCLC) of 6200 nM. It also gave a TGI (EKVX NSCLC) of 26700 nM, a GI50 (CAKI-1 renal) of 31.6 nM and a TGI (CAKI-1 renal) of 1870 nM. The GI50 (HOP-92 NSCLC) was 76.5 nM, the TGI (HOP-92 NSCLC) was 2480 nM and the GI50 (MCF7 breast) was under 16.1 nM. For the same molecule, the TGI (MCF7 breast) was 13200 nM, the GI50 (OVCAR-8 ovarian) was 186 nM and the TGI (OVCAR-8 ovarian) was 5070 nM.
